Results from paper PMC11033320, “Activation of p53 signaling and regression of breast and prostate carcinoma cells by spirooxindole-benzimidazole small molecules” (Frontiers in Pharmacology, 2024).

Legend:
[1] = test system: CAKI-1; assay: NCI anticancer screening, Renal Cancer CAKI-1; format: cell-based; settings: Homo sapiens; CAKI-1, 10 μM; read-out: % Growth Inhibition (GI %)
Outline: (§1)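 NCI DTP, standard 60-line human tumor screen (organic compounds).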

[2] = test system: UO-31; assay: NCI anticancer screening, Renal Cancer UO-31; format: cell-based; settings: Homo sapiens; UO-31, 10 μM; read-out: % Growth Inhibition (GI %)
Outline: as §1

[3] = test system: HCT-15; assay: NCI anticancer screening, Colon Cancer HCT-15; format: cell-based; settings: Homo sapiens; HCT-15, 10 μM; read-out: % Growth Inhibition (GI %)
Outline: as §1

[4] = test system: OVCAR-3; assay: NCI anticancer screening, Ovarian Cancer OVCAR-3; format: cell-based; settings: Homo sapiens; OVCAR-3, 10 μM; read-out: % Growth Inhibition (GI %)
Outline: as §1

[5] = test system: MALME-3M; assay: NCI anticancer screening, Melanoma MALME-3M; format: cell-based; settings: Homo sapiens, read-out: % Growth Inhibition (GI %)
Outline: as §1

[6] = test system: BT-549; assay: NCI anticancer screening, Breast Cancer BT-549; format: cell-based; settings: Homo sapiens; BT-549, 10 μM; read-out: % Growth Inhibition (GI %)
Outline: as §1

[7] = test system: SK-MEL-2; assay: NCI anticancer screening, Melanoma SK-MEL-2; format: cell-based; settings: Homo sapiens; SK-MEL-2, 10 μM; read-out: % Growth Inhibition (GI %)
Outline: as §1

[8] = test system: SR; assay: NCI anticancer screening, Leukemia SR; format: cell-based; settings: Homo sapiens, read-out: % Growth Inhibition (GI %)
Outline: as §1

[9] = MTT cytotoxicity to normal human lung fibroblast Wi-38 cell line; format: cell-based; settings: Wi-38 normal lung fibroblast cells, mean ± SEM, read-out: percentage of Wi-38 viability
[10] = test system: RPMI-8226; assay: NCI anticancer screening, Leukemia RPMI-8226; format: cell-based; settings: Homo sapiens; RPMI-8226, 10 μM; read-out: % Growth Inhibition (GI %)
Outline: as §1

[11] = test system: SF-539; assay: NCI anticancer screening, CNS Cancer SF-539; format: cell-based; settings: Homo sapiens; SF-539, 10 μM; read-out: % Growth Inhibition (GI %)
Outline: as §1

[12] = test system: NCI-H322M; assay: NCI anticancer screening, Non-Small Cell Lung Cancer NCI-H322M; format: cell-based; settings: Homo sapiens, read-out: % Growth Inhibition (GI %)
Outline: as §1

[13] = test system: UACC-257; assay: NCI anticancer screening, Melanoma UACC-257; format: cell-based; settings: Homo sapiens; UACC-257, 10 μM; read-out: % Growth Inhibition (GI %)
Outline: as §1

[14] = test system: OVCAR-5; assay: NCI anticancer screening, Ovarian Cancer OVCAR-5; format: cell-based; settings: Homo sapiens; OVCAR-5, 10 μM; read-out: % Growth Inhibition (GI %)
Outline: as §1

[15] = test system: M14; assay: NCI anticancer screening, Melanoma M14; format: cell-based; settings: Homo sapiens; M14, 10 μM; read-out: % Growth Inhibition (GI %)
Outline: as §1

[16] = test system: K-562; assay: NCI anticancer screening, Leukemia K-562; format: cell-based; settings: Homo sapiens, K562; K-562, 10 μM; read-out: % Growth Inhibition (GI %)
Outline: as §1

[17] = test system: T-47D; assay: NCI anticancer screening, Breast Cancer T-47D; format: cell-based; settings: Homo sapiens, T47D, read-out: % Growth Inhibition (GI %)
Outline: as §1

[18] = test system: MDA-MB-468; assay: NCI anticancer screening, Breast Cancer MDA-MB-468; format: cell-based; settings: Homo sapiens, read-out: % Growth Inhibition (GI %)
Outline: as §1

[19] = test system: NCI-H460; assay: NCI anticancer screening, Non-Small Cell Lung Cancer NCI-H460; format: cell-based; settings: Homo sapiens; NCI-H460, 10 μM; read-out: % Growth Inhibition (GI %)
Outline: as §1

[20] = test system: LOX IMVI; assay: NCI anticancer screening, Melanoma LOX IMVI; format: cell-based; settings: Homo sapiens, read-out: % Growth Inhibition (GI %)
Outline: as §1

[21] = test system: HT29; assay: NCI anticancer screening, Colon Cancer HT29; format: cell-based; settings: Homo sapiens, HT-29; HT29, 10 μM; read-out: % Growth Inhibition (GI %)
Outline: as §1

[22] = test system: UACC-62; assay: NCI anticancer screening, Melanoma UACC-62; format: cell-based; settings: Homo sapiens; UACC-62, 10 μM; read-out: % Growth Inhibition (GI %)
Outline: as §1

[23] = test system: IGROV1; assay: NCI anticancer screening, Ovarian Cancer IGROV1; format: cell-based; settings: Homo sapiens, IGROV-1; IGROV1, 10 μM; read-out: % Growth Inhibition (GI %)
Outline: as §1

[24] = test system: MOLT-4; assay: NCI anticancer screening, Leukemia MOLT-4; format: cell-based; settings: Homo sapiens; MOLT-4, 10 μM; read-out: % Growth Inhibition (GI %)
Outline: as §1

[25] = test system: HS 578T; assay: NCI anticancer screening, Breast Cancer HS 578T; format: cell-based; settings: Homo sapiens, read-out: % Growth Inhibition (GI %)
Outline: as §1

[26] = test system: OVCAR-4; assay: NCI anticancer screening, Ovarian Cancer OVCAR-4; format: cell-based; settings: Homo sapiens; OVCAR-4, 10 μM; read-out: % Growth Inhibition (GI %)
Outline: as §1

[27] = test system: MCF7; assay: NCI anticancer screening, Breast Cancer MCF7; format: cell-based; settings: Homo sapiens; MCF7, 10 μM; read-out: % Growth Inhibition (GI %)
Outline: as §1

[28] = test system: NCI-H522; assay: NCI anticancer screening, Non-Small Cell Lung Cancer NCI-H522; format: cell-based; settings: Homo sapiens; NCI-H522, 10 μM; read-out: % Growth Inhibition (GI %)
Outline: as §1

[29] = test system: ACHN; assay: NCI anticancer screening, Renal Cancer ACHN; format: cell-based; settings: Homo sapiens, read-out: % Growth Inhibition (GI %)
Outline: as §1

[30] = test system: A549/ATCC; assay: NCI anticancer screening, Non-Small Cell Lung Cancer A549/ATCC; format: cell-based; settings: Homo sapiens, read-out: % Growth Inhibition (GI %)
Outline: as §1

[31] = test system: SK-MEL-28; assay: NCI anticancer screening, Melanoma SK-MEL-28; format: cell-based; settings: Homo sapiens; SK-MEL-28, 10 μM; read-out: % Growth Inhibition (GI %)
Outline: as §1

[32] = test system: HCC-2998; assay: NCI anticancer screening, Colon Cancer HCC-2998; format: cell-based; settings: Homo sapiens; HCC-2998, 10 μM; read-out: % Growth Inhibition (GI %)
Outline: as §1

[33] = test system: NCI-H23; assay: NCI anticancer screening, Non-Small Cell Lung Cancer NCI-H23; format: cell-based; settings: Homo sapiens; NCI-H23, 10 μM; read-out: % Growth Inhibition (GI %)
Outline: as §1

Work on O=C(c1nc2ccccc2[nH]1)[C@H]1[C@H](c2cccs2)C2CSCN2[C@]12C(=O)Nc1ccccc12 (stereo partly drawn) [Compound 6e, (3S,6′R)-6'-(1H-Benzo [d]imidazole-2-carbonyl)-7'-(thiophen-2-yl)-3′,6′,7′,7a′-tetrahydro-1′H-spiro [indoline-3.5′-pyrrolo [1,2-c]thiazol]-2-one] yielded an inhibition at 10 µM [1] of 89.6%, an inhibition at 10 µM [2] of 76% and an inhibition at 10 µM [3] of 100%. The inhibition at 10 µM [4] was 105%, the inhibition at 10 µM [5] was 101% and the inhibition at 10 µM [6] was 94.1%. It also gave an inhibition at 10 µM [7] of 111%, an inhibition at 10 µM [8] of 101% and a viability at 72 h, 5 µM [9] of 51.7 ± 1.28%. The inhibition at 10 µM [10] was 101%, the inhibition at 10 µM [11] was 101% and the inhibition at 10 µM [12] was 97.7%. The inhibition at 10 µM [13] was 93.4%, the inhibition at 10 µM [14] was 96.2% and the inhibition at 10 µM [15] was 100%. The inhibition at 10 µM [16] was 100%, the inhibition at 10 µM [17] was 90.5% and the melting point was 240 to 242 °C. The inhibition at 10 µM [18] was 100%, the inhibition at 10 µM [19] was 101% and the inhibition at 10 µM [20] was 97.5%. It also gave an inhibition at 10 µM [21] of 101%, an inhibition at 10 µM [22] of 90.8% and an inhibition at 10 µM [23] of 89.7%. For the same molecule, the inhibition at 10 µM [24] was 96.1%, the inhibition at 10 µM [25] was 101% and the inhibition at 10 µM [26] was 93.9%. The inhibition at 10 µM [27] was 94.5%, the inhibition at 10 µM [28] was 91.5% and the inhibition at 10 µM [29] was 103%. It also gave an inhibition at 10 µM [30] of 87.1%, an inhibition at 10 µM [31] of 105% and an inhibition at 10 µM [32] of 108%. The inhibition at 10 µM [33] was 103%.

Molecule O=C(c1nc2ccccc2[nH]1)[C@H]1[C@H](c2ccc(F)cc2)C2CSCN2[C@]12C(=O)Nc1ccccc12 (stereo partly drawn) [Compound 6f, (3S,6′R)-6'-(1H-Benzo [d]imidazole-2-carbonyl)-7'-(4-fluorophenyl)-3′,6′,7′,7a′-tetrahydro-1′H-spiro [indoline-3.5′-pyrrolo [1,2-c]thiazol]-2-one] has an inhibition at 10 µM [1] of 90%, an inhibition at 10 µM [2] of 77% and an inhibition at 10 µM [3] of 93.6%. It also gave an inhibition at 10 µM [4] of 101%, an inhibition at 10 µM [5] of 94.2% and an inhibition at 10 µM [6] of 97.4%. The inhibition at 10 µM [7] was 102%, the inhibition at 10 µM [8] was 81.3% and the viability at 72 h, 5 µM [9] was 47.39 ± 0.092%. For the same molecule, the inhibition at 10 µM [10] was 87.8%, the inhibition at 10 µM [11] was 97.7% and the inhibition at 10 µM [12] was 90.4%. It also gave an inhibition at 10 µM [13] of 83.9%, an inhibition at 10 µM [14] of 100% and an inhibition at 10 µM [15] of 94.5%. It also gave an inhibition at 10 µM [16] of 87.4%, an inhibition at 10 µM [17] of 84.1% and a melting point of 233 to 235 °C. It also gave an inhibition at 10 µM [18] of 94.2%, an inhibition at 10 µM [19] of 88.9% and an inhibition at 10 µM [20] of 94.8%. It also gave an inhibition at 10 µM [21] of 85.7%, an inhibition at 10 µM [22] of 78.1% and an inhibition at 10 µM [23] of 93.2%. For the same molecule, the inhibition at 10 µM [24] was 83.6%, the inhibition at 10 µM [25] was 98% and the inhibition at 10 µM [26] was 83.2%. The inhibition at 10 µM [27] was 87.4%, the inhibition at 10 µM [28] was 79.5% and the inhibition at 10 µM [29] was 94.2%. It also gave an inhibition at 10 µM [30] of 78.6%, an inhibition at 10 µM [31] of 102% and an inhibition at 10 µM [32] of 97%. For the same molecule, the inhibition at 10 µM [33] was 98%.

In the case of O=C(c1nc2ccccc2[nH]1)[C@H]1[C@H](c2cccc(F)c2)C2CSCN2[C@]12C(=O)Nc1ccccc12 (stereo partly drawn) [Compound 6m, (3S,6′R)-6'-(1H-Benzo [d]imidazole-2-carbonyl)-7'-(3-fluorophenyl)-3′,6′,7′,7a′-tetrahydro-1′H-spiro [indoline-3.5′-pyrrolo [1,2-c]thiazol]-2-one], the inhibition at 10 µM [1] is reported as 74.7%, the inhibition at 10 µM [2] is reported as 65.3% and the inhibition at 10 µM [3] is reported as 95%. For the same molecule, the inhibition at 10 µM [4] was 103%, the inhibition at 10 µM [5] was 97.5% and the inhibition at 10 µM [6] was 99.5%. The inhibition at 10 µM [7] was 95.7%, the inhibition at 10 µM [8] was 82.8% and the viability at 72 h, 5 µM [9] was 43.7 ± 2.29%. The inhibition at 10 µM [10] was 83.6%, the inhibition at 10 µM [11] was 86.7% and the inhibition at 10 µM [12] was 99.8%. The inhibition at 10 µM [13] was 99%, the inhibition at 10 µM [14] was 90.5% and the inhibition at 10 µM [15] was 97%. It also gave an inhibition at 10 µM [16] of 84.4%, an inhibition at 10 µM [17] of 79.8% and a melting point of 224 to 226 °C. For the same molecule, the inhibition at 10 µM [18] was 99.3%, the inhibition at 10 µM [19] was 97.3% and the inhibition at 10 µM [20] was 87.5%. It also gave an inhibition at 10 µM [21] of 86%, an inhibition at 10 µM [22] of 80.1% and an inhibition at 10 µM [23] of 84.6%. The inhibition at 10 µM [24] was 85.5%, the inhibition at 10 µM [25] was 78.2% and the inhibition at 10 µM [26] was 87.3%. For the same molecule, the inhibition at 10 µM [27] was 91.2%, the inhibition at 10 µM [28] was 77.8% and the inhibition at 10 µM [29] was 90.2%. For the same molecule, the inhibition at 10 µM [30] was 84.6%, the inhibition at 10 µM [31] was 102% and the inhibition at 10 µM [32] was 91.8%. The inhibition at 10 µM [33] was 90.7%.
